In patent US6242224A, “Maltohexaose and maltoheptaose-forming amylase, and its preparation and uses” (Kabushiki Kaisha Mayashibara Seibutsu Kagaku Kenkyujo, priority 1994, dated 2001):

System: AMYLASE
Assay: Inhibition or promotion of AMYLASE activity by ions and EDTA
Format: biochemical, Alcaligenes latus D2271
Conditions: for inhibition of enzyme activity: one mM metal ion
Procedure: The activity of the present AMYLASE is assayed as follows: 0.2 ml of an enzyme solution is added to 5 ml of 0.3 w/v % soluble starch in 20 mM phosphate buffer (pH 5.5) containing 1 mM CaCl2), and the mixture solution is incubated at 40° C. for 10 min, followed by sampling 0.5 ml of the resultant solution, and adding the solution to 15 ml of 0.02N sulfate solution to suspend the enzymatic reaction. The resultant is mixed with 0.2 ml of 0.1N iodine solution, stirred, allowed to stand at 25° C. for 15 min, and its absorbance at a wave length of 660 nm determined. One unit activity of the present AMYLASE is defined as the amount of enzyme which diminishes the iodine coloration of 15 mg soluble starch when reacted at 40° C. for 10 min.
Effects of temperature and pH on the enzyme activity were studied in the presence of calcium chloride in accordance with the assay as used for determining the enzyme activity. […] The thermal stability of the enzyme was determined by incubating it in 20 mM acetate buffer containing 5 mM calcium chloride (pH 6.0) at different temperatures for 60 min, cooling the buffers, and assaying the remaining enzyme activity in each buffer. The pH stability of the enzyme was determined by incubating it in 20 mM acetate buffer having different pHs at 40° C. for one hour, adjusting the buffer to pH 6.0, and assaying the remaining enzyme activity in each buffer.

| SMILES | promotion of activity and stabilization of AMYLASE (calcium ion) | inhibition of enzyme activity |
| --- | --- | --- |
| [Ca+2] [calcium ion] | promoted its activity and stabilized |  |
| [Cu+2] [copper ion] |  | inhibited |
| [Pb+2] [lead ion] |  | inhibited |
| [Hg+2] [mercury ion] |  | inhibited |
| [Zn+2] [zinc ion] |  | inhibited |
